Values of other authors in publication PMC10726920 (Cancer Medicine, 2023).

Experiments:
ALL at first relapse = tested on: ALL at first relapse; design: method as in PMID 29603593; settings: cited from earlier work
r/r ALL = tested on: r/r ALL; design: method as in PMID 25724525; settings: combined with Hyper‐CVAD; cited from earlier work
lymphoid neoplasms = tested on: lymphoid neoplasms; design: method as in PMID 22080480; settings: cited from earlier work
r/r pediatric ALL = settings: with cyclophosphamide, etoposide, cited from earlier work
[1] = tested on: r/r ALL in second relapse or greater; settings: added to intensive chemotherapy, cited from earlier work

CO[C@H]1C[C@@H]2CC[C@@H](C)[C@@](O)(O2)C(=O)C(=O)N2CCCC[C@H]2C(=O)O[C@H]([C@H](C)C[C@@H]2CC[C@@H](OCCO)[C@H](OC)C2)CC(=O)[C@H](C)/C=C(\C)[C@@H](O)[C@@H](OC)C(=O)[C@H](C)C[C@H](C)/C=C/C=C/C=C/1C [Everolimus]
patients with meningitis (ALL at first relapse; dose level 3, Two out of twelve): 17% | patients obtaining remission (CR2) (ALL at first relapse; with multi‐agent chemotherapy, Nineteen of 22): 86% | DLT (ALL at first relapse; with multi‐agent chemotherapy): elevated liver enzymes in one patient | CR or CRi in patients with only one prior line of therapy (r/r ALL): Six of 11 | dose‐limiting toxicity (r/r ALL): G3 mucositis | overall response rate (r/r ALL): 33%

COc1cccc2cc(-c3nc([C@H]4CC[C@H](C(=O)O)CC4)n4ncnc(N)c34)[nH]c12 [OSI‐027]
sensitivity of ALL across a series of lymphoid neoplasms (lymphoid neoplasms): most sensitive

CO[C@H]1C[C@@H]2CC[C@@H](C)[C@@](O)(O2)C(=O)C(=O)N2CCCC[C@H]2C(=O)O[C@H]([C@H](C)C[C@@H]2CC[C@@H](OC(=O)C(C)(CO)CO)[C@H](OC)C2)CC(=O)[C@H](C)/C=C(\C)[C@@H](O)[C@@H](OC)C(=O)[C@H](C)C[C@H](C)/C=C/C=C/C=C/1C [temsirolimus]
overall response rate (r/r pediatric ALL; 15 patients): 47% | CR or CRi (r/r pediatric ALL): 26% | patients achieving remission ([1]; Seven of 15): 47% | patients with minimal residual disease <0.01% ([1]; three patients): 20%
